Consider 1 molecule from paper PMC3272785 (2011).

The target of assay [1] is T1, yeast cytosine deaminase (yCD) (Saccharomyces cerevisiae, UniProt Q12178).
T1 sequence (Q12178 6-158): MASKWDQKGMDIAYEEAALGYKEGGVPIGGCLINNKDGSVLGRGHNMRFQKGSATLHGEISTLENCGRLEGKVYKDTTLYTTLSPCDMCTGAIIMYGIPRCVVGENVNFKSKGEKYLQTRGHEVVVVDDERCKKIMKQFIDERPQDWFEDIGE
In words: fluorometric titration. It counts as binding.

In assay [2] the target is T2, yeast cytosine deaminase (yCD) (Saccharomyces cerevisiae, UniProt Q12178, E64D).
T2 sequence (Q12178 6-158 E64D): T1 sequence (Q12178 6-158)
In words: radiometric 5FC deamination inhibition assay. Type of assay: biochemical.

By Kd is commonly meant the constant that tells how readily two partners part at equilibrium. A low value points to a tighter complex. A word on the Ki: it is a measure of affinity in units of concentration, obtained from inhibition or displacement. High values mean weaker binding, low ones tighter binding. The molecule `Oc1ncc(F)cn1` [5FPy, 5-fluoro-1H-pyrimidin-2-one] had a Kd in assay [1] of 0.65 ± 0.08 µM. The molecule also came in with a Ki in assay [2] of 1060 ± 60 µM.
